Measurements published in US12227496B2 (BRISTOL-MYERS SQUIBB COMPANY, priority 2019, dated 2025).

The compounds below were run against T1, human FXR (Homo sapiens, UniProt Q96RI1) (assay: transient human FXR/Gal4-luciferase reporter assay). Conditions: Gal4-hFXR LBD fusion, luciferase reporter in HEK293 cells; response relative to 8 μM GW-4064.
T1 construct: expressed in transfected cells; host or cells: HEK293 cells stably carrying a 5xGal4-response-element firefly luciferase reporter, transiently transfected with pcDNA3.1-Gal4-FXR
T1 sequence (Q96RI1 262-486 limits assumed): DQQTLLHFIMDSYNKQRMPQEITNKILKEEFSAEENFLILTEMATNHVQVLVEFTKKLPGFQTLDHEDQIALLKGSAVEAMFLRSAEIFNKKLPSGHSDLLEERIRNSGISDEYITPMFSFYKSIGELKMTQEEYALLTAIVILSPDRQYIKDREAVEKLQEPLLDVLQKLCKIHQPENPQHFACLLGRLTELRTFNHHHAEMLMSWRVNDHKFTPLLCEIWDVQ
Format: cell-based
In short: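 HEK293 cells stably carrying a 5×Gal4-response-element firefly luciferase reporter were transiently transfected with Gal4-hFXR. They were then incubated overnight at 37 °C with compound serial dilutions in medium containing 10% charcoal/dextran-stripped FBS. Luminescence was read after Steady-Glo addition.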

Row | SMILES | EC50 [nM]
1 | Cn1nc(C2CC2)cc1C12CCC(CN(C(=O)C3CCS(=O)(=O)CC3)c3cccc(-c4cc(C5CC5)no4)c3)(CC1)CC2 [Example 138, N-((4-(3-cyclopropyl-1-methyl-1H-pyrazol-5-yl)bicyclo[2.2.2]octan-1-yl)methyl)-N-(3-(3-cyclopropylisoxazol-5-yl)phenyl)tetrahydro-2H-thiopyran-4-carboxamide 1,1-dioxide] | 1580
2 | Cn1nc(C2CC2)cc1C12CCC(CN(C(=O)C3CCOCC3)c3cccc(-c4cc(C5CC5)no4)c3)(CC1)CC2 [Example 139, N-((4-(3-cyclopropyl-1-methyl-1H-pyrazol-5-yl)bicyclo[2.2.2]octan-1-yl)methyl)-N-(3-(3-cyclopropylisoxazol-5-yl)phenyl)tetrahydro-2H-pyran-4-carboxamide] | 87
3 | CN1CCC(C(=O)N(CC23CCC(c4cc(C5CC5)nn4C)(CC2)CC3)c2cccc(-c3cc(C4CC4)no3)c2)CC1 [Example 140, N-((4-(3-cyclopropyl-1-methyl-1H-pyrazol-5-yl)bicyclo[2.2.2]octan-1-yl)methyl)-N-(3-(3-cyclopropylisoxazol-5-yl)phenyl)-1-methylpiperidine-4-carboxamide] | 2640
4 | CC(C)(C)c1noc(C23CCC(CN(C(=O)C4CCC(F)(F)CC4)c4cccc(-c5cnn6cc(Cl)cnc56)c4)(CC2)CC3)n1 [Example 141, N-((4-(3-(tert-butyl)-1,2,4-oxadiazol-5-yl)bicyclo[2.2.2]octan-1-yl)methyl)-N-(3-(6-chloropyrazolo[1,5-a]pyrimidin-3-yl)phenyl)-4,4-difluorocyclohexane-1-carboxamide] | 549
5 | Cc1cn(-c2cccc(N(CC34CCC(c5nc(C(C)(C)C)no5)(CC3)CC4)C(=O)C3CCC(F)(F)CC3)c2)cn1 [Example 142, N-((4-(3-(tert-butyl)-1,2,4-oxadiazol-5-yl)bicyclo[2.2.2]octan-1-yl)methyl)-4,4-difluoro-N-(3-(4-methyl-1H-imidazol-1-yl)phenyl)cyclohexane-1-carboxamide] | 721
6 | CCOc1ncc(-c2cccc(N(CC34CCC(c5noc(C(C)(C)F)n5)(CC3)CC4)C(=O)c3ccc(OC)cc3)c2)cn1 [Example 143, N-(3-(2-ethoxypyrimidin-5-yl)phenyl)-N-((4-(5-(2-fluoropropan-2-yl)-1,2,4-oxadiazol-3-yl)bicyclo[2.2.2]octan-1-yl)methyl)-4-methoxybenzamide] | 202
7 | CCOc1ncc(-c2cccc(N(CC34CCC(c5noc(C(C)(C)F)n5)(CC3)CC4)C(=O)c3ccc(OC(F)F)cc3)c2)cn1 [Example 144, 4-(difluoromethoxy)-N-(3-(2-ethoxypyrimidin-5-yl)phenyl)-N-((4-(5-(2-fluoropropan-2-yl)-1,2,4-oxadiazol-3-yl)bicyclo[2.2.2]octan-1-yl)methyl)benzamide] | 334
8 | CC(C)(C)c1noc(C23CCC(CN(C(=O)C4CCC(F)(F)CC4)c4cccc(-c5cc(C6CC6)no5)c4)(CC2)CC3)n1 [Example 147, N-((4-(3-(tert-butyl)-1,2,4-oxadiazol-5-yl)bicyclo[2.2.2]octan-1-yl)methyl)-N-(3-(3-cyclopropylisoxazol-5-yl)phenyl)-4,4-difluorocyclohexane-1-carboxamide] | 205
9 | CC(C)(C)c1nc(C23CCC(CN(C(=O)C4CCC(F)(F)CC4)c4cccc(-c5cc(C6CC6)no5)c4)(CC2)CC3)no1 [Example 148, N-((4-(5-(tert-butyl)-1,2,4-oxadiazol-3-yl)bicyclo[2.2.2]octan-1-yl)methyl)-N-(3-(3-cyclopropylisoxazol-5-yl)phenyl)-4,4-difluorocyclohexane-1-carboxamide] | 107

Next, values leading:

Row | EC50 [nM] | SMILES
10 | 78 | O=C(C1CCC(F)(F)CC1)N(CC12CCC(c3noc(C4(C(F)(F)F)CC4)n3)(CC1)CC2)c1cccc(-c2cc(C3CC3)no2)c1 [Example 149, N-(3-(3-cyclopropylisoxazol-5-yl)phenyl)-4,4-difluoro-N-((4-(5-(1-(trifluoromethyl)cyclopropyl)-1,2,4-oxadiazol-3-yl)bicyclo[2.2.2]octan-1-yl)methyl)cyclohexane-1-carboxamide]
11 | 38 | CC(F)(F)c1nc(C23CCC(CN(C(=O)C4CCC(F)(F)CC4)c4cccc(-c5cc(C6CC6)no5)c4)(CC2)CC3)no1 [Example 150, N-(3-(3-cyclopropylisoxazol-5-yl)phenyl)-N-((4-(5-(1,1-difluoroethyl)-1,2,4-oxadiazol-3-yl)bicyclo[2.2.2]octan-1-yl)methyl)-4,4-difluorocyclohexane-1-carboxamide]
12 | 38 | O=C(C1CCC(F)(F)CC1)N(CC12CCC(c3nc(C4CC4)no3)(CC1)CC2)c1cccc(-c2cc(C3CC3)no2)c1 [Example 151, N-((4-(3-cyclopropyl-1,2,4-oxadiazol-5-yl)bicyclo[2.2.2]octan-1-yl)methyl)-N-(3-(3-cyclopropylisoxazol-5-yl)phenyl)-4,4-difluorocyclohexane-1-carboxamide]
13 | 662 | O=C(C1CCS(=O)(=O)CC1)N(CC12CCC(c3nc(C4CC4)no3)(CC1)CC2)c1cccc(-c2cc(C3CC3)no2)c1 [Example 152, N-((4-(3-cyclopropyl-1,2,4-oxadiazol-5-yl)bicyclo[2.2.2]octan-1-yl)methyl)-N-(3-(3-cyclopropylisoxazol-5-yl)phenyl)tetrahydro-2H-thiopyran-4-carboxamide 1,1-dioxide]
14 | 57 | O=C(C1CCOCC1)N(CC12CCC(c3nc(C4CC4)no3)(CC1)CC2)c1cccc(-c2cc(C3CC3)no2)c1 [Example 153, N-((4-(3-cyclopropyl-1,2,4-oxadiazol-5-yl)bicyclo[2.2.2]octan-1-yl)methyl)-N-(3-(3-cyclopropylisoxazol-5-yl)phenyl)tetrahydro-2H-pyran-4-carboxamide]
15 | 57 | CC(F)(F)c1nc(C23CCC(CN(C(=O)C4CCC(F)(F)CC4)c4cccc(-c5cc(C6CC6)on5)c4)(CC2)CC3)no1 [Example 154, N-(3-(5-cyclopropylisoxazol-3-yl)phenyl)-N-((4-(5-(1,1-difluoroethyl)-1,2,4-oxadiazol-3-yl)bicyclo[2.2.2]octan-1-yl)methyl)-4,4-difluorocyclohexane-1-carboxamide]
16 | 289 | CC(F)(F)c1nc(C23CCC(CN(C(=O)C4CCS(=O)(=O)CC4)c4cccc(-c5cc(C6CC6)on5)c4)(CC2)CC3)no1 [Example 155, N-(3-(5-cyclopropylisoxazol-3-yl)phenyl)-N-((4-(5-(1,1-difluoroethyl)-1,2,4-oxadiazol-3-yl)bicyclo[2.2.2]octan-1-yl)methyl)tetrahydro-2H-thiopyran-4-carboxamide 1,1-dioxide]
17 | 44 | CC(F)(F)c1nc(C23CCC(CN(C(=O)C4CCOCC4)c4cccc(-c5cc(C6CC6)on5)c4)(CC2)CC3)no1 [Example 156, N-(3-(5-cyclopropylisoxazol-3-yl)phenyl)-N-((4-(5-(1,1-difluoroethyl)-1,2,4-oxadiazol-3-yl)bicyclo[2.2.2]octan-1-yl)methyl)tetrahydro-2H-pyran-4-carboxamide]
18 | 242 | CC(F)(F)c1nc(C23CCC(CN(C(=O)C4CCC(O)(C(F)(F)F)CC4)c4cccc(-c5cc(C6CC6)on5)c4)(CC2)CC3)no1 (centres unmarked) [Example 157, N-(3-(5-cyclopropylisoxazol-3-yl)phenyl)-N-((4-(5-(1,1-difluoroethyl)-1,2,4-oxadiazol-3-yl)bicyclo[2.2.2]octan-1-yl)methyl)-4-hydroxy-4-(trifluoromethyl)cyclohexane-1-carboxamide]
19 | 195 | CC(F)(F)c1nc(C23CCC(CN(C(=O)C4CCC(O)(C(F)(F)F)CC4)c4cccc(-c5cc(C6CC6)on5)c4)(CC2)CC3)no1 (centres unmarked) [Example 158, N-(3-(5-cyclopropylisoxazol-3-yl)phenyl)-N-((4-(5-(1,1-difluoroethyl)-1,2,4-oxadiazol-3-yl)bicyclo[2.2.2]octan-1-yl)methyl)-4-hydroxy-4-(trifluoromethyl)cyclohexane-1-carboxamide]
20 | 78 | CC(C)(C)c1noc(C23CCC(CN(C(=O)C4CCC(F)(F)CC4)c4cccc(-c5cc(C6CC6)on5)c4)(CC2)CC3)n1 [Example 159, N-((4-(3-(tert-butyl)-1,2,4-oxadiazol-5-yl)bicyclo[2.2.2]octan-1-yl)methyl)-N-(3-(5-cyclopropylisoxazol-3-yl)phenyl)-4,4-difluorocyclohexane-1-carboxamide]
21 | 701 | CC(C)(C)c1noc(C23CCC(CN(C(=O)C4CCS(=O)(=O)CC4)c4cccc(-c5cc(C6CC6)on5)c4)(CC2)CC3)n1 [Example 160, N-((4-(3-(tert-butyl)-1,2,4-oxadiazol-5-yl)bicyclo[2.2.2]octan-1-yl)methyl)-N-(3-(5-cyclopropylisoxazol-3-yl)phenyl)tetrahydro-2H-thiopyran-4-carboxamide 1,1-dioxide]
22 | 77 | CC(C)(C)c1noc(C23CCC(CN(C(=O)C4CCOCC4)c4cccc(-c5cc(C6CC6)on5)c4)(CC2)CC3)n1 [Example 161, N-((4-(3-(tert-butyl)-1,2,4-oxadiazol-5-yl)bicyclo[2.2.2]octan-1-yl)methyl)-N-(3-(5-cyclopropylisoxazol-3-yl)phenyl)tetrahydro-2H-pyran-4-carboxamide]
23 | 41 | CC(C)(C)c1nc(C23CCC(CN(C(=O)C4CCC(F)(F)CC4)c4cccc(-c5cc(C6CC6)on5)c4)(CC2)CC3)no1 [Example 162, N-((4-(5-(tert-butyl)-1,2,4-oxadiazol-3-yl)bicyclo[2.2.2]octan-1-yl)methyl)-N-(3-(5-cyclopropylisoxazol-3-yl)phenyl)-4,4-difluorocyclohexane-1-carboxamide]
